According to patent US20150087598A1, “TREATING MUC1-EXPRESSING CANCERS WITH HELICASE INHIBITORS” (DANA-FARBER CANCER INSTITUTE, INC., priority 2012, published 2015):
Where two headings read alike, the source gives them in different places.

What was measured:
CYP2C9 = CYP2C9 (Homo sapiens, UniProt P11712); conditions: background statement; cited from earlier work
MUC1-C [1] = experiment: Immunoblot of MUC1-C in growth factor-stimulated MCF-10A cells; format: cell-based, Human; conditions: for HRG-induced increase in MUC1-C abundance: MCF-10A cells + HRG, indicated concentrations; for EGF- and HRG-induced MUC1-C translation: growth factor stimulation (summary in discussion)
Method: (§1) Human MCF-10A mammary epithelial cells were grown in mammary epithelial growth medium (MEGM, Lonza). Human MCF-7 and MDA-MB-468 breast cancer cells were cultured in Dulbecco's modified Eagle's medium with 10% heat-inactivated fetal bovine serum (FBS), 100 U/ml penicillin, 100 μg/ml streptomycin and 2 mM L-glutamine. Human BT-549 cells were maintained in RPMI-1640 medium (ATCC) with 10% FBS and 0.023 IU/ml insulin. Cells were treated with EGF (Sigma), heregulin beta 1 (HRG; Neomarkers), cycloheximide (CHX, Calbiochem), U0126 (Calbiochem), LY294002 (Caymam Chemical Company), BEZ-235 (Selleckchem) and rapamycin Cell Signaling Technology). In certain experiments, MCF-10A cells were serum-starved overnight, and inhibitors were added 2.5 h prior to EGF or HRG treatment.
(§2) Lysates from subconfluent cells were immunoblotted with anti-MUC1-C(AbS; Neomarkers), anti-β-actin (Sigma), anti-p-AKT, anti-AKT, anti-p-ERK1/2, anti-ERK1/2, anti-p-S6K1, anti-S6K1, anti-PCDC4, anti-eIF4E, eIF4A (Cell Signaling Technology) and anti-EGFR (Santa Cruz Technology) Immune complexes were detected with horseradish peroxidase-conjugated secondary antibodies and enhanced chemiluminescence (Amersham Biosciences). Intensity of certain signals was determined by densitometric scanning.

[2] = cited from earlier work
[3] = test system: mitogen-activated protein kinase kinase (MEK); conditions: background statement; cited from earlier work
MUC1-C [4] = experiment: Immunoblot of MUC1-C in MDA-MB-468 breast cancer cells; format: cell-based, Human; conditions: MDA-MB-468 cells, 10 and 100 nM
Method: as §1, §2

eIF4A RNA helicase = conditions: literature; cited from earlier work
cyclin D1, MYC and MCL1 = conditions: literature; cited from earlier work
PDCD4 = experiment: Immunoblot of PDCD4 in MCF-10A cells; format: cell-based, Human; conditions: 100 nM silvestrol
Method: as §1, §2

cancer cells [5] = conditions: literature, preclinical studies, cited from earlier work
MUC1-C [6] = experiment: Immunoblot of MUC1-C in MCF-7 breast cancer cells; format: cell-based, Human; conditions: MCF-7 cells; for MUC1-C abundance: 100 nM
Method: as §1, §2

β-actin = β-actin abundance in growth factor-stimulated MCF-10A cells; format: cell-based, Human
Method: as §2

cancer cells [7] = conditions: literature; cited from earlier work
MCF-10A cells = experiment: EGF-stimulated MCF-10A cell growth, viable cell number by trypan blue exclusion; format: cell-based, Human; conditions: 100 nM, 24 h with EGF, reseeded, counted at 48 h
Description: FIGS. 6A-D. MUC1-C translation is inhibited by CR-1-31-B in MCF-10A cells. (FIG. 6A) Structures of the indicated compounds.

MUC1-C [8] = experiment: Immunoblot of MUC1-C in BT-549 breast cancer cells; format: cell-based, Human; conditions: BT-549 cells, 100 nM, data not shown
Method: as §1, §2

MUC1 gene promoter = experiment: MUC1 promoter luciferase assay in MCF-10A cells; format: cell-based, Human; conditions: pMUC1-Luc, EGF 100 ng/ml 5 h
Method: Control pGL3 or pGL3-MUC1-promoter constructs were transfected with the Renilla plasmid into cells in the presence of Lipofectamine. At 24 h after transfection, cells were serum-starved overnight, and then treated with EGF (100 ng/ml) for 5 h. Luciferase reporter activity was measured using the Promega Dual Glo kit.

MUC1 mRNA = MUC1 mRNA by qRT-PCR in MCF-10A cells; format: cell-based, Human; conditions: EGF stimulation
Method: Total RNA was isolated from cells using an RNeasy Mini kit (Qiagen). cDNAs were synthesized with 0.3-1 μg RNA using the first-strand cDNA synthesis kit (Invitrogen). The SYBR green qPCR assay kit (Applied Biosystems) was used with 5 μl of 20-fold diluted cDNA from each sample, and the samples were amplified with the ABI Prism 7300 machine (Applied Biosystems).

[9] = MCF-10A cells + EGF, CHX 10 ng/ml, U0126 10 μM, LY294002 50 μM, BEZ235 250 or 500 nM, rapamycin 100 nM, silvestrol, CR-1-31-B, CR-1-30-B indicated concentrations 24 h

Chain of CYP2C9 (P11712 whole entry): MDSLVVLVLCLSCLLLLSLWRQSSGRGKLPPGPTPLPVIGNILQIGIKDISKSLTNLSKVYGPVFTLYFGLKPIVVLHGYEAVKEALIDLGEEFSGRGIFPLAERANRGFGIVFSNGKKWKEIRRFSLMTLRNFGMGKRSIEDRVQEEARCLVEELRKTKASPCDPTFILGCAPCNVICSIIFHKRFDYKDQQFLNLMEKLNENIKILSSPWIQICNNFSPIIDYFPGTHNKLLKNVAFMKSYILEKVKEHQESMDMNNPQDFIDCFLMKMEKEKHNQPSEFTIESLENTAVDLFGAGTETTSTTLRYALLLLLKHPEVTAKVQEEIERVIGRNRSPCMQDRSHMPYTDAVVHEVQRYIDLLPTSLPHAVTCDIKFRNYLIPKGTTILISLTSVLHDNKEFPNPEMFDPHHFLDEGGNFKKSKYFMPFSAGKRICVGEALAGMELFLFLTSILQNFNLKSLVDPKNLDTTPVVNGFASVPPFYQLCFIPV

**Q.** With `O=c1cc(-c2ccc(O)cc2)oc2cc(O)cc(O)c12` [Apigenin, 4′,5,7-trihydroxyflavone] as the compound, how does the “inhibition of CYP2C9” value (CYP2C9) read?
**A.** potent inhibitor

**Q.** For `Cn1c(=O)n(-c2ccc(C(C)(C)C#N)cc2)c2c3cc(-c4cnc5ccccc5c4)ccc3ncc21` [BEZ235], which “EGF-induced increase in MUC1-C abundance” value (MUC1-C [1]; [9]) is on record?
**A.** blocked

**Q.** With `O=c1c(O)c(-c2ccc(O)cc2)oc2cc(O)cc(O)c12` [Kaempferol] as the compound, how does the solubility in water [2] read?
**A.** slightly soluble

**Q.** With `COc1cccc(-c2cc(=O)c3ccccc3o2)c1N` [PD98059, 2-(2′-amino-3′-methoxyphenyl)-oxanaphthalen-4-one] as the compound, how does the “inhibition of MEK” value [3] read?
**A.** potent inhibitor

**Q.** With `N#CC(=C(/N)Sc1ccccc1N)/C(C#N)=C(\N)Sc1ccccc1N` [U0126] as the compound, how does the “EGF-induced increase in MUC1-C abundance” value (MUC1-C [1]) read?
**A.** not ERK1/2, blocked

**Q.** For `C[C@@H]1C[C@@H]([C@H](O)CC2CC(=O)NC(=O)C2)C(=O)[C@@H](C)C1` [cycloheximide], which “EGF-induced increase in MUC1-C abundance” value (MUC1-C [1]; [9]) is on record?
**A.** blocked

**Q.** For `COC(=O)[C@H]1[C@@H](O)[C@@]2(O)c3c(OC)cc(O[C@@H]4O[C@@H]([C@H](O)CO)CO[C@H]4OC)cc3O[C@@]2(c2ccc(OC)cc2)[C@@H]1c1ccccc1` [silvestrol], which MUC1-C abundance (MUC1-C [4]) is on record?
**A.** clearly detectable

**Q.** What about the “activity against eIF4A RNA helicase” value (eIF4A RNA helicase) of the same compound?
**A.** potent inhibitor

**Q.** And the “production of cyclin D1, MYC and MCL1” value (cyclin D1, MYC and MCL1)?
**A.** decreases

**Q.** What about the PDCD4 abundance (PDCD4) of the same compound?
**A.** marked decrease

**Q.** And the “anti-tumor activity in animal models” value (cancer cells [5])?
**A.** promising anti-tumor activity

**Q.** What about the “toxicity in animal models” value (cancer cells [5]) of the same compound?
**A.** little toxicity

**Q.** What about the “anti-tumor activity in animal models” value (cancer cells [5]; listed as Silvestrol) of the same compound?
**A.** active

**Q.** What about the MUC1-C levels (MUC1-C [6]; 10 nM) of the same compound?
**A.** limited effect

**Q.** And the MUC1-C abundance (MUC1-C [6])?
**A.** more pronounced decrease

**Q.** What about the “EGF-induced increase in MUC1-C abundance” value (MUC1-C [1]; [9]) of the same compound?
**A.** blocked

**Q.** What about the “HRG-induced increase in MUC1-C abundance” value (MUC1-C [1]; 24 h) of the same compound?
**A.** dose-dependent inhibitory effects

**Q.** And the “EGF- and HRG-induced MUC1-C translation” value (MUC1-C [1]; MCF-10A cells)?
**A.** substantially blocked

**Q.** And the “abundance of β-actin” value (β-actin)?
**A.** little effect

**Q.** And the “activity against cancer cells growing in vitro” value (cancer cells [7])?
**A.** active

**Q.** Which MUC1-C abundance (MUC1-C [4]) does the source give for CR-1-31-B here?
**A.** decreases

**Q.** And the “growth of MCF-10A cells in response to EGF” value (MCF-10A cells)?
**A.** attenuated

**Q.** What about the MUC1-C abundance (MUC1-C [6]) of the same compound?
**A.** downregulation

**Q.** What about the “EGF-induced increase in MUC1-C abundance” value (MUC1-C [1]; [9]) of the same compound?
**A.** dose-dependent decrease

**Q.** What about the “HRG-induced increase in MUC1-C abundance” value (MUC1-C [1]; 24 h) of the same compound?
**A.** blocked

**Q.** And the “EGF- and HRG-induced MUC1-C translation” value (MUC1-C [1]; MCF-10A cells)?
**A.** similarly blocks

**Q.** What about the MUC1-C expression (MUC1-C [8]) of the same compound?
**A.** decreases

**Q.** Which results are given for “EGF: growth factor (Sigma) stimulating EGFR”?
**A.** activation of the MUC1 gene promoter (MUC1 gene promoter): no significant effect; MUC1 mRNA levels (MUC1 mRNA): no apparent effect; effect of growth factor stimulation on MUC1-C levels (MUC1-C [6]; EGF 100 ng/ml, HRG data not shown): no apparent effect; increase in MUC1-C expression compared to baseline levels (MUC1-C [1]; MCF-10A cells, growth factor stimulation (EGF 100 ng/ml, HRG 10 ng/ml), 24 h): 65 fold
